According to patent US20230346823A1, “UTILIZATION OF VITAMIN B12 IN INHIBITING RENAL DISORDER” (Niigata University, priority 2020, published 2023):

Key:
transcobalamin 2 (TCN2) [1] = target: T1, transcobalamin 2 (TCN2) (Rattus norvegicus, UniProt Q9R0D6); test: Competition against binding of TCN2 to contrast medium-immobilized beads, Western blotting; conditions: 25 ng/µL TCN2 + test substance; contrast medium beads (iomeprol, ioversol, iodixanol, iopromide, iohexol) at 10 mM feed; FIG. 6 to FIG. 10
T1 construct: purchased LifeSpan BioSciences, Inc
T1 sequence (Q9R0D6 19-427): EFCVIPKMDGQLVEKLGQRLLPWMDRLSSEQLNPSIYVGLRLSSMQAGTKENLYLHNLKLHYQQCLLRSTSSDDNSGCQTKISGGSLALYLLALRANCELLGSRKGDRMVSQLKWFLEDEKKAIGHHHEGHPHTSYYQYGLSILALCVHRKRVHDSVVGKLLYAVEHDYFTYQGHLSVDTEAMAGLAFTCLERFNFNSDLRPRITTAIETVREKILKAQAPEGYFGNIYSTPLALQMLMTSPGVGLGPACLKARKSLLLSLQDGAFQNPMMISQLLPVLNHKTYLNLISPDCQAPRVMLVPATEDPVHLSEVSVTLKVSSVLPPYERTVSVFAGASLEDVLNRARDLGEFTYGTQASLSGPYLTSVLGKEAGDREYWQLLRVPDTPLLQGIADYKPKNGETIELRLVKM
Description: Iodinated contrast media used were the bulk of iomeprol, the bulk of ioversol, the bulk of iodixanol, the bulk of iopromide, and the bulk of iohexol. Evaluations were made using these solid-phased beads.
For test chemicals for competing with the binding, vitamin B12 (cyanocobalamin, methylcobalamin, or hydroxocobalamin), cilastatin, and iomeprol (iodinated contrast medium) were used. Cilastatin and iomeprol are positive controls of inhibition.
The solution/beads combinations adopted were as mentioned below. • Solution a) + contrast medium-immobilized beads prepared at 0 mM contrast medium feed concentration (control) • Solution a) + contrast medium-immobilized beads prepared at 10 mM contrast medium feed concentration (no competition) • Solution b) + contrast medium-immobilized beads prepared at 10 mM contrast medium feed concentration (competition with vitamin B12, iomeprol, or cilastatin)

megalin [2] = target: megalin (Mus musculus, UniProt A2ARV4); conditions: described in PTL 1; cited from earlier work
Chain of megalin (Mus musculus, UniProt A2ARV4) (A2ARV4 26-4660): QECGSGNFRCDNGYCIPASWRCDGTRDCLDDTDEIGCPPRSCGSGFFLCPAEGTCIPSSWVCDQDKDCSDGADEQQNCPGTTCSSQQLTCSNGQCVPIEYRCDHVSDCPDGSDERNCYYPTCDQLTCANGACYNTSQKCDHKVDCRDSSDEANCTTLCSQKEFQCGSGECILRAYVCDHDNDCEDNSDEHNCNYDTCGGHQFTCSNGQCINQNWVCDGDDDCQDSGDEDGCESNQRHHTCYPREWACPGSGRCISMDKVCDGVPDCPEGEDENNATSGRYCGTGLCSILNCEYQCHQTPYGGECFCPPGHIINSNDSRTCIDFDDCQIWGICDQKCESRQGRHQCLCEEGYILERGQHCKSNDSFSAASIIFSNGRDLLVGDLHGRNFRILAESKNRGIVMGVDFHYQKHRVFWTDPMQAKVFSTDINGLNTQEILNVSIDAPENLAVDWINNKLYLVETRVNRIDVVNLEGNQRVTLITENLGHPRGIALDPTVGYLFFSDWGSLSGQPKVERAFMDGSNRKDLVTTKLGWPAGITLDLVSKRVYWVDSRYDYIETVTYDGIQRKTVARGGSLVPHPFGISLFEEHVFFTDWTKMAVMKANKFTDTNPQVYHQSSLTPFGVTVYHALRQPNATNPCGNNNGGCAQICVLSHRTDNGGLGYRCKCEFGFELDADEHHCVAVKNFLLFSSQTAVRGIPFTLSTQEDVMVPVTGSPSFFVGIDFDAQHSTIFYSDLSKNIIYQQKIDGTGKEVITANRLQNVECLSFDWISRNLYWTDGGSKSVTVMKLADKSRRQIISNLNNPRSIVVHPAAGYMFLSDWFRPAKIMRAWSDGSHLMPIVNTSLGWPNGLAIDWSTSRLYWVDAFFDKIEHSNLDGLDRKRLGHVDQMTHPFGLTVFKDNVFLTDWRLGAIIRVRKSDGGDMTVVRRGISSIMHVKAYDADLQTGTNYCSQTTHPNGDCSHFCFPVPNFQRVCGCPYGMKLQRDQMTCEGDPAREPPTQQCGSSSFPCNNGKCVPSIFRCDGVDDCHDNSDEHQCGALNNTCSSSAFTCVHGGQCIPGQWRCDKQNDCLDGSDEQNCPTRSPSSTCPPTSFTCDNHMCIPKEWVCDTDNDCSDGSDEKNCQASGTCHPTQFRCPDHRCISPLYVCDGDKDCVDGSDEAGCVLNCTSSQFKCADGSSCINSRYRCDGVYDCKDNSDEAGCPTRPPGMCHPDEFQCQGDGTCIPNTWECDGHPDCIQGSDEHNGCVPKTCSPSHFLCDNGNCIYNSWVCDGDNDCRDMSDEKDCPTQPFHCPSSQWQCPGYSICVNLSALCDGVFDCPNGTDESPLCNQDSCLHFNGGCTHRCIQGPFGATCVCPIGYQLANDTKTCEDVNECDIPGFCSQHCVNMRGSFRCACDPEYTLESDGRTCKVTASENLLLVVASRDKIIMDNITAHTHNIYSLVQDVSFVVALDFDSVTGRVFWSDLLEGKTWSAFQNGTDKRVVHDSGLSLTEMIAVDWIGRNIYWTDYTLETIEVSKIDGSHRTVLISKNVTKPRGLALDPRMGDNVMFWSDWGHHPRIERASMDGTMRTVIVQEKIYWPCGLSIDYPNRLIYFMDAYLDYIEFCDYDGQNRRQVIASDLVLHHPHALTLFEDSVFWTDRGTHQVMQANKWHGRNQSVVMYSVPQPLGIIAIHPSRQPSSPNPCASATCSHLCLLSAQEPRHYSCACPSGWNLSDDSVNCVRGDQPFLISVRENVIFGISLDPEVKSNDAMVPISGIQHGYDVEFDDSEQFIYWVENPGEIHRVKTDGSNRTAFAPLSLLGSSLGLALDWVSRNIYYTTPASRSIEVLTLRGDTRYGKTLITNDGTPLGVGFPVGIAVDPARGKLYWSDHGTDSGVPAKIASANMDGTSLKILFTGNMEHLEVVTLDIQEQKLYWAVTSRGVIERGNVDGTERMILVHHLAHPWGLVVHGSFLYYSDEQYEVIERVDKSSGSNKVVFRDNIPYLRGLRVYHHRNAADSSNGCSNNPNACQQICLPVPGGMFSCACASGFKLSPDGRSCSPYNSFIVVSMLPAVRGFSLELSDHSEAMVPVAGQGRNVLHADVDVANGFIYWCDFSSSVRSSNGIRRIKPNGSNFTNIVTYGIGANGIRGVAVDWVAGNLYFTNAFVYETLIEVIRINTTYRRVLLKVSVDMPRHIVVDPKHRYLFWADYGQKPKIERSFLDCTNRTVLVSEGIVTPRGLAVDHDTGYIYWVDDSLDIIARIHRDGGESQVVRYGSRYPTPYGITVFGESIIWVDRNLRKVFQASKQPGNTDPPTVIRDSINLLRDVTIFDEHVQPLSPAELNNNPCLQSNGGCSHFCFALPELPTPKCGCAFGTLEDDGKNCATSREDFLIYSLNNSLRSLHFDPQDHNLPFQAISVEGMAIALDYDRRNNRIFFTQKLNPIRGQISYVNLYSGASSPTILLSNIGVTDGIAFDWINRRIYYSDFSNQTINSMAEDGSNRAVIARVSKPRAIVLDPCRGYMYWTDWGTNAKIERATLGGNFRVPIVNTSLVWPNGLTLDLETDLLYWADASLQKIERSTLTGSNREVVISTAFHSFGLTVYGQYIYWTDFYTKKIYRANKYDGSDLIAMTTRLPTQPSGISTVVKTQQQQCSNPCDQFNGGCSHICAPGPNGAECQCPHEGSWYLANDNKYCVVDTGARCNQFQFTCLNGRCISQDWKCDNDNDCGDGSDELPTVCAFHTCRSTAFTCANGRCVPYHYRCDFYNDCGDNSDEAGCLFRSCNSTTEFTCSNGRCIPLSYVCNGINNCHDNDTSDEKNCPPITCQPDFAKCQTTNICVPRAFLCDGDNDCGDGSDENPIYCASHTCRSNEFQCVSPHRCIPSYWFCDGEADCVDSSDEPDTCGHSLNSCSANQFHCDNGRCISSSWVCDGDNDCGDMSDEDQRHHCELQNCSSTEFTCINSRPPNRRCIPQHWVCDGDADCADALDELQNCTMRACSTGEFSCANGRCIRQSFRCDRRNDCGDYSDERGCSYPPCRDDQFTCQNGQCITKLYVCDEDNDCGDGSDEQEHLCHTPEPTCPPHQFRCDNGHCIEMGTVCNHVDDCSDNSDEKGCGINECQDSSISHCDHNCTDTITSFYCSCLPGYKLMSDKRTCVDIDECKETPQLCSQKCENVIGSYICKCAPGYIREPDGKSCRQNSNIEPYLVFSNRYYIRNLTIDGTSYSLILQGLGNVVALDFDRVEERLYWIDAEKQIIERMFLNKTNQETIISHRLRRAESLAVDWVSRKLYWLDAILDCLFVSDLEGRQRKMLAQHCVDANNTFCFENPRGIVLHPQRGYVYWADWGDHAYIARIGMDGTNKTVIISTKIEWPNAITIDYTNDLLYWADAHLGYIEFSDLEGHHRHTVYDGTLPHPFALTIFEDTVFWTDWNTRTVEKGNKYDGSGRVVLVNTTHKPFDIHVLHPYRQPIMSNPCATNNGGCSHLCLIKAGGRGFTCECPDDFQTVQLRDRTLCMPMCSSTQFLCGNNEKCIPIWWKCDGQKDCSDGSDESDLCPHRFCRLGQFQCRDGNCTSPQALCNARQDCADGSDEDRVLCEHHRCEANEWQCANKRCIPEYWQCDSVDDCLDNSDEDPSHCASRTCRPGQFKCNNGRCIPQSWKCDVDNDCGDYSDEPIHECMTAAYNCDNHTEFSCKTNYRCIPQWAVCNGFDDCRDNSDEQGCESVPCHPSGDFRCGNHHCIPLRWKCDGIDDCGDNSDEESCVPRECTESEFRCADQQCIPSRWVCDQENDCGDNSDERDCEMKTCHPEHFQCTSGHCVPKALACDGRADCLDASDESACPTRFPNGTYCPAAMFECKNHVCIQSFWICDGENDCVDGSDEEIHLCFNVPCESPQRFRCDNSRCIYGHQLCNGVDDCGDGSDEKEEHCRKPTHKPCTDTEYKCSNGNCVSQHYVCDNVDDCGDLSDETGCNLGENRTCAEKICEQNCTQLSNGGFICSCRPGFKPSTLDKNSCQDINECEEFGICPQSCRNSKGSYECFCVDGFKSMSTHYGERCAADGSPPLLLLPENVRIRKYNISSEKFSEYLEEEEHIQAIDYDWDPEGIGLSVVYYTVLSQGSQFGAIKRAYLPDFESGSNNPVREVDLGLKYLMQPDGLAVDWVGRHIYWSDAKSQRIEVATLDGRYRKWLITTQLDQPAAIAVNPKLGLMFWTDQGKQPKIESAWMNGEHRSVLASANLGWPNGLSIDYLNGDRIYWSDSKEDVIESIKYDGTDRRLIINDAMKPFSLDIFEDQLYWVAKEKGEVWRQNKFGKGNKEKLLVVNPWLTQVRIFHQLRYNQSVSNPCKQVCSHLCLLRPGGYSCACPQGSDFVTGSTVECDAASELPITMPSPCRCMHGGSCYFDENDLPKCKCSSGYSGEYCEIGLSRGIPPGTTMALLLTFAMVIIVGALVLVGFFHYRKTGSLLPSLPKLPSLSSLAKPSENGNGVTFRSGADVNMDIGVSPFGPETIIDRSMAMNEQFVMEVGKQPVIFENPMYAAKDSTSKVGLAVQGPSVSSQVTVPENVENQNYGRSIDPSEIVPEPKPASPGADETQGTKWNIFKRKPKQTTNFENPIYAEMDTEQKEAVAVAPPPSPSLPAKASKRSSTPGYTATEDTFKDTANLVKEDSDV

transcobalamin 2 (TCN2) [3] = target: T1, transcobalamin 2 (TCN2); test: Binding of TCN2 to iomeprol-immobilized magnetic beads, Western blotting with anti-TCN2 antibody; conditions: feed concentrations 0, 3 and 10 mM, 25 ng/µL TCN2, 4° C., 4 hours, FIG. 5
Protocol: The bulk of iodinated contrast medium was dissolved, just before use, in a solvent in which glycidylmethacrylate-coated magnetic beads (FG beads®, particle size: 0.2 µm, produced by Tamagawa Seiki Co., Ltd.) were dispersed, to initiate chemical bonding between […] present on the surface of the magnetic beads and hydroxyl groups in the contrast medium, whereby contrast medium-immobilized magnetic beads were prepared.
The iodinated contrast medium used was the bulk of iomeprol. At feed concentrations of 0 mM, 3 mM and 10 mM, the iodinated contrast medium was immobilized by chemical bonding. The preparation of the iomeprol-immobilized beads was conducted by Tamagawa Seiki Co., Ltd. […]
The TCN2-containing samples were subjected to SDS-polyacrylamide electrophoresis under reducing conditions using 4-15% gradient gels (produced by Bio-Rad Laboratories), and the developed samples were transferred onto polyvinylidene fluoride (PVDF) membranes. […] Then, bands were detected using chemiluminescent substrate for western blotting (SuperSignal™ West Femto Maximum Sensitivity Substrate; Thermo Scientific™).

[4] = system: renal proximal tubular epithelial cells; test: Internalization of iodinated contrast medium into kidney cortex, iodine/nitrogen ratio by EPMA; type: in vivo, C57BL/6J mice; conditions: 100 µL iomeprol + 100 µL of 1 mg/mL cyanocobalamin, tail vein; kidneys 3 hours later; vs iomeprol + normal saline control; t-test; FIG. 1
Protocol: The prepared sections were analyzed by EPMA (EPMA1610; Shimadzu Ltd, Kyoto, Japan) by following the procedure described below to examine whether there is a difference in the internalization of a contrast medium between the contrast medium + vitamin B12-treated group and the contrast medium + normal saline-treated group.
EPMA is an electron microprobe (EMP) instrument that analyzes the constituent elements of a substance of interest by irradiating electron beams onto the substance and measuring the wavelengths and intensities of characteristic X-rays unique to the different elements, which are generated by the electron beams. The iodine content in sections can be determined by EMP analysis (Norby, et al., Scanning Microsc, 1990, vol.4, p.651-666). […] The behaviors of iodinated contrast media per se can be verified by analyzing iodine content distribution.
The “thin-film quantification” technique can be applied for analysis of biological samples such as kidney tissue sections. […]
Therefore, by calculating a ratio of characteristic X-ray intensity between iodine (I) and nitrogen (N) (I/N) in a specified area of biological samples, iodine (I) in different samples can be relatively quantified and compared.
Based on this principle, the sections obtained by the above experiment were analyzed by EPMA, and iodine in a specified area was relatively quantified and compared among the samples. […]

C57BL/6J mice = test: Contrast-induced renal injury model (left nephrectomy, ischemia-reperfusion, then iomeprol); conditions: 200 µL iomeprol + 100 µL of 1 mg/mL cyanocobalamin, vs iomeprol + normal saline
Protocol: Left kidneys were extracted from the C57BL/6J mice, and 14 days later, right kidney pedicles were ligated for 30 minutes. Thereafter, reperfusion was carried out. After 24 hours from the start of reperfusion, the C57BL/6J mice were divided into the following groups and administered with the following agents from the tail vein. • a) Contrast medium + vitamin B12-treated group: 200 µL of iomeprol + 100 µL of 1 mg/mL of cyanocobalamin solution • b) Contrast medium + normal saline-treated group (control): 200 µL of iomeprol + 100 µL of normal saline
For each of the groups, 24 hours before anatomizing, urine samples were collected using a metabolic cage, the mice were anatomized after 48 hours from the medication, then urinary kidney injury molecule-1 (KIM-1) was measured. Urinary KIM-1 measurements were conducted by Oriental Yeast Co., Ltd.
Further, right kidneys were extracted and histologically evaluated by immunostaining with KIM-1. To be specific, 3 mm-thick sections containing a kidney pedicle portion were prepared from the right kidneys, fixed with 4% paraformaldehyde phosphate buffer, sliced at a thickness of 4 µm using a microtome (REM-710; Yamato Kohki Industrial Co., Ltd.), and the obtained thin slices were immunostained with the renal injury marker KIM-1. The immunostaining was performed using VECTASTAIN Elite ABC Kit (Vector Laboratories, Inc.). […]

megalin [5] = target: T2, megalin (Rattus norvegicus, UniProt P98158); test: Quartz crystal microbalance (QCM) binding of transcobalamin 2 to immobilized megalin; set-up: species or system Sprague-Dawley (SD) rat; conditions: 1.5 µg recombinant rat transcobalamin 2 injected on megalin-immobilized quartz crystals; BSA control decreased only 20 to 30 Hz; FIG. 4
T2 construct: megalin purified from Sprague-Dawley (SD) rat kidneys; from tissue; host or cells: Sprague-Dawley rat kidneys (megalin purified by the method of Orlando et al.); TCN2 purchased from LifeSpan BioSciences
Protocol: According to the method of Orlando, et al., megalin purified from Sprague-Dawley (SD) rat kidneys was immobilized on quartz crystals. To be specific, with the use of an immobilization kit for AFFINIX® (Initium Inc.) according to the recommended protocol for the kit, a megalin solution was prepared in Buffer A as provided with the kit to a concentration of 62.5 µg/mL, and placed and immobilized on the quartz crystals mounted in a holder.
After the megalin-immobilized quartz crystals were mounted in the measurement instrument AFFINIX® Q8 (Initium Inc.) and the frequency was confirmed to be stable, recombinant rat transcobalamin 2 proteins (TCN2 LifeSpan Bio Sciences, Inc.) (1.5 µg) were injected (in total injection volume) to measure frequency over time. More specifically, after the megalin-immobilized quartz crystals were immersed in 200 µL of buffer and the frequency was confirmed to be stable, transcobalamin 2 was injected and frequency was measured. The same measurement was done on quartz crystals, as a control, on which the same amount of bovine serum albumin (BSA) was immobilized instead of megalin, and the specific binding ability of transcobalamin 2 to megalin was analyzed.

In the case of `CC1(C)C[C@@H]1C(=O)N/C(=C\CCCCSC[C@H](N)C(=O)O)C(=O)O` [cilastatin, (Z)-7-[[(R)-2-Amino-2-carboxyethyl]thio]-2-[[[(S)-2,2-dimethylcyclopropyl]carbonyl]amino]-2-heptenoic acid], the “TCN2 bands by competition with test substance” value (from here on “TCN2 bands by competition”) (transcobalamin 2 (TCN2) [1]) is listed as “concentration-dependent decrease in TCN2 bands”, the “megalin-dependent internalization of iodinated contrast media into renal proximal tubular epithelial cells” value (megalin [2]) is listed as “inhibits” and the renal injuries (megalin [2]) is listed as “inhibits renal injuries”.

With `C/C1=C2/[N-][C@H]([C@H](CC(N)=O)[C@@]2(C)CCC(=O)NC[C@@H](C)OP(=O)([O-])O[C@H]2[C@@H](O)[C@@H](n3cnc4cc(C)c(C)cc43)O[C@@H]2CO)[C@]2(C)N=C(/C(C)=C3N=C(/C=C4N=C1[C@@H](CCC(N)=O)C\4(C)C)[C@@H](CCC(N)=O)[C@]\3(C)CC(N)=O)[C@@H](CCC(N)=O)[C@]2(C)CC(N)=O.[Co+3].[OH-]` [hydroxocobalamin] the “TCN2 bands by competition” value (transcobalamin 2 (TCN2) [1]) was “concentration-dependent decrease in TCN2 bands”.

For `CN(C(=O)CO)c1c(I)c(C(=O)NCC(O)CO)c(I)c(C(=O)NCC(O)CO)c1I` (stereo not drawn) [iomeprol], the “TCN2 bands by competition” value (transcobalamin 2 (TCN2) [1]) was “concentration-dependent decrease in TCN2 bands” and the “intensity of TCN2 band from heat-eluted samples” value (transcobalamin 2 (TCN2) [3]) was “intensity of the band corresponding to TCN2 from heat-eluted samples was increased”.

For `C/C1=C2/[N-][C@H]([C@H](CC(N)=O)[C@@]2(C)CCC(=O)NC[C@H](C)OP(=O)([O-])O[C@H]2[C@@H](O)[C@@H](n3cnc4cc(C)c(C)cc43)O[C@@H]2CO)[C@]2(C)N=C(/C(C)=C3N=C(/C=C4N=C1[C@@H](CCC(N)=O)C\4(C)C)[C@@H](CCC(N)=O)[C@]\3(C)CC(N)=O)[C@@H](CCC(N)=O)[C@]2(C)CC(N)=O.[CH3-].[Co+3]` [methylcobalamin], the “TCN2 bands by competition” value (transcobalamin 2 (TCN2) [1]) was “concentration-dependent decrease in TCN2 bands”.

With cyanocobalamin the “I/N X-ray ratio (iodine/nitrogen) in kidney cortex areas” value [4] was “significantly (t-test) lower”, the “TCN2 bands by competition” value (transcobalamin 2 (TCN2) [1]) was “concentration-dependent decrease in TCN2 bands” and the “expression of KIM-1 in outer cortex (immunostaining)” value (C57BL/6J mice; tail vein, 48 hours after medication, FIG. 2) was “expression of KIM-1 was decreased”. The “PAS staining, vacuoles degeneration (injury finding) in kidney cortex” value (C57BL/6J mice; FIG. 3) was “did not have such an injury finding”.

B1: transcobalamin 2: Recombinant rat transcobalamin 2 protein, a transport protein for vitamin B12 (about 45 kDa) (protein, UniProt Q9R0D6 19-427, looked up)
Transcobalamin-2: T1 sequence (Q9R0D6 19-427)
For B1, the “decrease of QCM frequency” value (megalin [5]) was “about 200 Hz”.
